The assay addresses Human CYP17 enzyme (Cytochrome P450, 17-20 lyase) (Homo sapiens (Human), UniProt P05093). As to the kind of experiment: CYP17 lyase assay, recombinant human CYP17 enzyme, 17-α-hydroxy pregnenolone [21-3H] substrate. The assay is classed as biochemical. Particulars: recombinant human CYP17, first value of Human/Rat cell; read-out: Lyase IC 50 Human. The text has this:
1) Cvtochrome P450, 17-20 Lyase (CYP17-Lyase) Assay Development Using Recombinant Human CYP17 Enzyme and 17-α-Hydroxy Pregnenolone [21-3H] as the Substrate
Cytochrome P450, 17-α-Hydroxylase, 17-20 lyase (CYP17) is a multi functional enzyme that plays a key role in the biosynthesis of steroid hormones. […] In the hydroxylation reaction, it converts progesterone and pregnenolone to the corresponding hydroxylated products 17-α-hydroxy progesterone and 17-α-hydroxy pregnenolone. In the lyase reaction, it catalyzes the conversion of these hydroxylated substrates to Androstenedione and Dehydroepiandrosterone (DHEA) respectively. In the Cyp17 lyase assay described here, the conversion of 17-α-hydroxy pregnenolone to Dehydroepiandrosterone and acetic acid is being monitored.
The conversion of 17-α-hydroxy pregnenolone to Dehydroepiandrosterone is accompanied by the release of acetic acid. In the Cyp17 lyase assay, 17-α-hydroxy pregnenolone labeled with tritium (3H) at position 21 is used as the substrate. Chloroform extraction removes the radioactive steroids and acetic acid is taken into aqueous layer. The tritiated acetic acid released in the assay thus extracted is quantified to determine the enzyme activity.
Human Cyp 17 gene was cloned and expressed in Adenoviral expression system in A549 cell lines. The purified cell membrane preparations were used as the source for Human CYP17 enzyme. Total protein concentration: 8 mg/mL.
For routine screening, the assay was set up with 16 μg of enzyme in 50 μL reaction volume. 17α-hydroxy pregnenolone [21-3H] was added to a final concentration of […] NADPH is used at a final concentration of 4.2 mM. Total reaction volume was made up to 50 μL with 50 mM Phosphate buffer pH 7.5. The reaction mixture was incubated at room temperature for 90 minutes with gentle shaking. The reaction was stopped by the addition of 100 μl, of buffer. 500 μl, of 5% freshly prepared activated charcoal was added to the solution and mixed well by vortexing. The samples were centrifuged at 17568×g for 5 minutes. (14000 rpm). The supernatant was carefully transferred to fresh tube and 1.3 mL of scintillation fluid was added, mixed by vortexing.
The measurements were carried out in 2.0 mL Eppendorf™ tubes. Each tube was counted for 1 minute. The amount of tritiated acetic acid released is proportional to the lyase activity. Percent lyase activity in presence of inhibitor was calculated using the formula given below.
[formula] Sample: Enzyme reaction in presence of inhibitor. Positive control: Enzyme reaction without inhibitor but containing DMSO at 1% final concentration. Blank—Contains all reagents except enzyme. % Inhibition=100%−% Lyase activity
For IC50 determination, the % inhibition was plotted as a function of inhibitor concentration. The data was fitted to sigmoidal equation using Graphpad Prism® software IV to generate IC50 values.

For 17 compounds, IC50 results are on record in US9029399B2, “17α-hydroxylase/C17,20-lyase inhibitors” (Novartis AG, priority 2011, dated 2015).

Chain of Human CYP17 enzyme (Cytochrome P450, 17-20 lyase) (P05093 whole entry): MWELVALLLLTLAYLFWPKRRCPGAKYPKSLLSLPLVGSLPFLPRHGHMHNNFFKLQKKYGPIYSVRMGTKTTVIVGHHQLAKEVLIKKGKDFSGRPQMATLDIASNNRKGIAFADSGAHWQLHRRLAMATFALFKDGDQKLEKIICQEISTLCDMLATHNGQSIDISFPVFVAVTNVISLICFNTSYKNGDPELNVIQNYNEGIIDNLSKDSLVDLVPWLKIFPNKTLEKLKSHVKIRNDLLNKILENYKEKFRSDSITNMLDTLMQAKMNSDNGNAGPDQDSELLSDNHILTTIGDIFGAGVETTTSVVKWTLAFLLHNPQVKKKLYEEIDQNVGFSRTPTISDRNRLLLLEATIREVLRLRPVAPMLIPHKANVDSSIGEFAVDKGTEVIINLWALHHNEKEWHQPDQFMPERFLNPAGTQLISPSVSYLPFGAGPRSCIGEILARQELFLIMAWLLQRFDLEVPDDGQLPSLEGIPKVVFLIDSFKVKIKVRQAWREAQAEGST

With `O=C1N(c2ccc3ccccc3c2)CCN1c1cnccc1C1CC1` [Example 3A, 1-(4-cyclopropylpyridin-3-yl)-3-(naphthalen-2-yl)imidazolidin-2-one], the IC50 turned out to be 26 nM.
The same measure for `O=C1N(c2ccc3sccc3c2)CCN1c1cnccc1C1CC1` [Example 4A, 1-(benzo[b]thiophen-5-yl)-3-(4-cyclopropylpyridin-3-yl)imidazolidin-2-one]: 13 nM; for `O=C1N(c2cccc(C(F)(F)F)c2)CCN1c1cnccc1C1CC1` [Example 5A, 1-(4-cyclopropylpyridin-3-yl)-3-(3-(trifluoromethyl)phenyl)imidazolidin-2-one]: 6 nM; for `O=C1N(c2cc3ccccc3s2)CCN1c1cnccc1C1CC1` [Example 6A, 1-(benzo[b]thiophen-2-yl)-3-(4-cyclopropylpyridin-3-yl)imidazolidin-2-one]: 13 nM.
For `Cc1nc(Cl)cc(N2CCN(c3cnccc3C3CC3)C2=O)n1` [Example 7A, 1-(6-chloro-2-methylpyrimidin-4-yl)-3-(4-cyclopropylpyridin-3-yl)imidazolidin-2-one], the IC50 came out at 41 nM.
The same measure for `O=C1N(c2cc(C(F)(F)F)ccn2)CCN1c1cnccc1C1CC1` [Example 8A, 1-(4-cyclopropylpyridin-3-yl)-3-(4-(trifluoromethyl)pyridin-2-yl)imidazolidin-2-one]: 22 nM; for `O=C1N(c2cc(Cl)ncn2)CCN1c1cnccc1C1CC1` [Example 10A, 1-(6-chloropyrimidin-4-yl)-3-(4-cyclopropylpyridin-3-yl)imidazolidin-2-one]: 121 nM.
The same measure for `O=C1N(c2ccnc(C(F)(F)F)n2)CCN1c1cnccc1C1CC1` [Example 12A, 1-(4-cyclopropylpyridin-3-yl)-3-(2-(trifluoromethyl)pyrimidin-4-yl)imidazolidin-2-one]: 99 nM; for `O=C1N(c2ccc3scc(C(F)(F)F)c3c2)CCN1c1cnccc1C1CC1` [Example 13A, 1-(4-cyclopropylpyridin-3-yl)-3-(3-(trifluoromethyl)benzo[b]thiophen-5-yl)imidazolidin-2-one]: 11 nM; for `O=C1N(c2ccc3sc(F)cc3c2)CCN1c1cnccc1C1CC1` [Example 14A, 1-(4-cyclopropylpyridin-3-yl)-3-(2-fluorobenzo[b]thiophen-5-yl)imidazolidin-2-one]: 26 nM.
As for `Cc1csc2ccc(N3CCN(c4cnccc4C4CC4)C3=O)cc12` [Example 15A, 1-(4-cyclopropylpyridin-3-yl)-3-(3-methylbenzo[b]thiophen-5-yl)imidazolidin-2-one], the IC50 came out at 6.7 nM.
Take `O=C1N(c2ccc3ccsc3c2)CCN1c1cnccc1C1CC1` [Example 16A, 1-(benzo[b]thiophen-6-yl)-3-(4-cyclopropylpyridin-3-yl)imidazolidin-2-one]: the IC50 was 7 nM.
Turning to `O=C1N(c2ccc3c(c2)OC(F)(F)O3)CCN1c1cnccc1C1CC1` [Example 17A, 1-(4-cyclopropylpyridin-3-yl)-3-(2,2-difluorobenzo[d][1,3]dioxol-5-yl)imidazolidin-2-one], the IC50 came out at 58 nM.
`Cc1csc2cc(N3CCN(c4cnccc4C4CC4)C3=O)ccc12` [Example 18A, 1-(4-cyclopropylpyridin-3-yl)-3-(3-methylbenzo[b]thiophen-6-yl)imidazolidin-2-one]: the IC50 came out at 76 nM.
Regarding `Cc1coc2ccc(N3CCN(c4cnccc4C4CC4)C3=O)cc12` [Example 19A, 1-(4-cyclopropylpyridin-3-yl)-3-(3-methylbenzofuran-5-yl)imidazolidin-2-one], the IC50 is 2.7 nM.
Turning to `O=C1N(c2ccc3sc(Cl)cc3c2)CCN1c1cnccc1C1CC1` [Example 20A, 1-(2-chlorobenzo[b]thiophen-5-yl)-3-(4-cyclopropylpyridin-3-yl)imidazolidin-2-one], the IC50 amounted to 106 nM.
The figure for `O=C1N(c2ccc3c(c2)CCC3)CCN1c1cnccc1C1CC1` [Example 21A, 1-(4-cyclopropylpyridin-3-yl)-3-(2,3-dihydro-1H-inden-5-yl)imidazolidin-2-one] is 17 nM.
